According to patent publication US20250340590A1, “PEPTIDE HAVING ANTI-INFLAMMATORY ACTIVITY AND USE THEREOF” (CAREGEN CO., LTD., priority 2021, published 2025):

How the values were obtained:
Type in all cases: cell-based
TNFα [1] = test: TNFα mRNA level by RT-PCR in TNFα-induced mouse splenocytes; conditions: TNFα 20 nM, peptide at 5 μM and 50 μM, 3 hours, compared to group not treated with the peptide
Method: In order to further confirm the anti-inflammatory effect of the peptide treatment of the present invention in addition to the results of Experimental Example <3-1>, inflammation was induced by treating mouse splenocytes with TNFα, and the expression levels of inflammatory cytokines TNFα and IL-1β, and Cox2, which is an inflammation-inducing marker, genes were confirmed. In order to induce inflammation, the cells were treated with cytokine TNFα, and since TNFα corresponds to a signaling protein associated with inflammation, IL-1β corresponds to a cytokine that promotes inflammation, and Cox2 is a protein associated with inflammation, the degree of inflammation can be confirmed by measuring the expression levels of TNFα, Cox2, and IL-1β genes.
Mouse splenocytes were dispensed into a 24-well plate at a concentration of 1× 10^7 cells/well and cultured until the next day. The medium was replaced with serum-free medium, and after 3 hours, the cells were treated with TNFα and the peptide of the present invention and then cultured for another 3 hours. In order to induce inflammation, the cells were treated with TNFα at 20 nM, and the peptide at 5 μM and 50 μM, respectively. […] After quantifying the amount of isolated RNA, cDNA was synthesized using a cDNA synthesis kit (Intron, Korea), PCR was performed using a PCR premix (Intron, Korea) and primers for TNFα, Cox2, and IL-1B. […]

TNFα [2] = test: TNFα secretion by ELISA in LPS-induced mouse splenocytes; conditions: LPS 2 μg/mL, peptide at 5 μM and 50 μM, 24 hours
Method: (§1) Inflammation was induced in mouse splenocytes, and the secretion amounts of inflammatory cytokines TNFα, IL-1β, and IFNγ were confirmed. In order to induce inflammation, the cells were treated with an inflammation-inducing antigen, LPS, and since TNFα corresponds to a signaling protein associated with inflammation, IL-1β corresponds to a cytokine that promotes inflammation, and IFNγ also corresponds to a cytokine that promotes inflammation, the degree of inflammation can be confirmed by measuring the secretion amounts of TNFα, IL-1B, and IFNγ.
(§2) Mouse splenocytes were dispensed into a 24-well plate at a concentration of 1×10^7 cells/well and cultured until the next day. The medium was replaced with serum-free medium, and after 4 hours, the cells were treated with LPS and the peptide of the present invention and then cultured again for another 24 hours. In order to induce inflammation, the cells were treated with LPS at 2 μg/mL, and the peptide at 5 μM and 50 μM, respectively. […]

IL-1β = IL-1β secretion by ELISA in LPS-induced mouse splenocytes; conditions: LPS 2 μg/mL, peptide at 5 μM and 50 μM, 24 hours
Method: as §1, §2

IFNγ = IFNγ secretion by ELISA in mouse splenocytes induced with LPS, TGFβ and IL-23; conditions: LPS 2 μg/mL, TGFβ 20 ng/ml, IL-23 20 ng/mL, 24 hours
Description: Inflammation was induced by treating mouse splenocytes with LPS, which is an inflammation-inducing antigen, and TGFβ and IL-23, which are inflammatory cytokines, and the secretion amounts of the inflammatory cytokines IL-17, IL-1β, and IFNγ were confirmed. The descriptions of IL-17, IL-1B, and IFNγ are the same as above.
Mouse splenocytes were dispensed into a 24-well plate at a concentration of 1×10^7 cells/well and cultured until the next day. The medium was replaced with serum-free medium, and after 4 hours, the cells were treated with LPS, TGFβ, and IL-23 and the peptide of the present invention and then cultured again for another 24 hours. In order to induce inflammation, the cells were treated with LPS at 2 μg/mL, TGFβ at 20 ng/ml, IL-23 at 20 ng/mL, and the peptide at 5 μM and 50 μM, respectively. The mouse splenocytes in the group in which inflammation was not induced due to untreatment with LPS, TGFβ, and IL-23 (NON); the negative control group in which the cells were treated with LPS, TGFβ, and IL-23 but not treated with the peptide (NC); and the group in which the cells were treated with LPS, TGFβ, and IL-23 along with the peptide of the present invention at the same concentration as above, respectively, were reacted as described above and the cell cultures were recovered. […]

TWNS [peptide of the present invention]
decreased: mRNA expression level of TNFα (TNFα [1]) | secretion amount of TNFα (TNFα [2]) | secretion amount of IL-1β (IL-1β) | secretion amount of IFNγ (IFNγ; peptide at 5 μM) | secretion amount of IFNγ (IFNγ; peptide at 50 μM)
